Test results from US20200345013A1, “ANTI-ADHERENT BOTANICAL COMPOSITIONS” (priority 2014, published 2020).

Tests used:
[1] = system: S. aureus; assay: High Throughput Anti-adherent Test, polystyrene, one-hour adhesion, S. aureus; format: cell-based, Staphylococcus aureus; conditions: agent 5% in water; percentage of microbes that remain attached to treated polystyrene; low = stronger anti-adherent effect; average +/- SD, n = 2
Text: (§1) The botanical extracts listed in Table 3 were initially screened for their effect against microbial adhesion using the High Throughput Anti-adherent Test Method described below. The effect of the botanical filtrates as the percentage of control-corrected A490 is shown. For bacterial strains, the corrected A490 were all less than 20% of the untreated control. For C. albicans, the corrected A490 of the botanical filtrates were less than 70% of the untreated control. The lower percentage value indicates a stronger inhibitory effect.
(§2) II. High Throughput Anti-Adherence Test Method
(§3) This test method specifies the operational parameters required to grow and or prevent the formation of bacterial attachment using a high throughput screening assay. The assay device consists of a plastic lid with ninety-six (96) pegs and a corresponding receiver plate with ninety-six (96) individual wells that have a maximum 200 μL working volume. Biofilm is established on the pegs under static batch conditions (i.e., no flow of nutrients into or out of an individual well). • 1. […]

[2] = system: K. pneumoniae; assay: High Throughput Anti-adherent Test, polystyrene, one-hour adhesion, K. pneumoniae; format: cell-based, Klebsiella pneumoniae; conditions: agent 5% in water; percentage of microbes that remain attached to treated polystyrene; low = stronger anti-adherent effect; average +/- SD, n = 2
Text: as §1, §2, §3

[3] = system: Staphylococcus aureus CICC 10384 (ATCC 6538P); assay: Screening anti-adhesion effect on porcine skin, S. aureus; format: cell-based
Protocol: Preparation of Bacterial Cell Suspensions • 1. Klebsiella pneumonia CICC 21519 (ATCC 4352) and Staphylococcus aureus CICC 10384 (ATCC 6538P) were purchased from China Center of Industrial Culture Collection. • 2. Stock culture of each species was streaked onto TSA plate (OXOID, […], England) and incubated at 37° C. overnight. • 3. Single colonies were subcultured in TSB (OXOID, […], England) and incubated 37° C., 200 rpm overnight. • 4. Dilutions of overnight cultures in PBS buffer were used for the screening.
Screening the Anti-Adhesion Effect of Botanicals/Compounds on Porcine Skin • 1. Porcine skins were aseptically cut to squares of 2×2 cm, and each was placed in a sterile Petri dish (CITOTEST LABWARE MANUFACTURING CO., LTD, Haimen, Jiangsu). • 2. Aliquots (100 μL) of botanical/compounds suspensions were applied to porcine skins, three replicates. • 3. Skins were allowed to air dry for 2 hours at ˜50% relative humidity. • 4. Inocula (100 μL) were applied to the porcine skin, and incubated at 37° C. for 2 hours. • 5. […] After incubation, colonies on plates were counted. Reduction (%) of colony forming unit (CFU) from the average counts on untreated skin was calculated. • 9. […] After incubation, plaques on plates were counted. • d. Reduction (%) of plaque forming unit (PFU) from the average counts on untreated skin was calculated.

[4] = system: Klebsiella pneumonia CICC 21519 (ATCC 4352); assay: Screening anti-adhesion effect on porcine skin, K. pneumoniae; format: cell-based, Klebsiella pneumoniae; conditions: two-hour adhesion time, Table 2
Protocol: Klebsiella pneumonia CICC 21519 (ATCC 4352) and Staphylococcus aureus CICC 10384 (ATCC 6538P) were purchased from China Center of Industrial Culture Collection. • 2. […] Dilutions of overnight cultures in PBS buffer were used for the screening.
Aliquots (100 μL) of botanical/compounds suspensions were applied to porcine skins, three replicates. • 3. Skins were allowed to air dry for 2 hours at ˜50% relative humidity. • 4. Inocula (100 μL) were applied to the porcine skin, and incubated at 37° C. for 2 hours. • 5. The skins were washed three times by applying 5 ml of PBS+0.01% Tween 80 onto the skins and then removing the liquid by pipetting. • 6. […] Microbial cells were enumerated by spread plate method. • a. […] For S. aureus and K. pneumoniae, the suspension and dilutions were plated onto TSA, and incubated at 37° C. for 1 day. • 8. After incubation, colonies on plates were counted. Reduction (%) of colony forming unit (CFU) from the average counts on untreated skin was calculated. • 9.

[5] = system: C. albicans SC5314; assay: Screening anti-adhesion effect on porcine skin, C. albicans; format: cell-based, Candida albicans; conditions: agent 5% in water, 2 h adhesion, average +/- SD, n = 2, positive = anti-adherent
Protocol: Preparation of C. albicans Cell Suspension • 1. Single cell suspension of C. albicans SC5314 was prepared as follows. Stock culture of C. albicans SC5314 was streaked onto YPD agar (YPDA) and incubated at 30° C. overnight. • 2. Single colonies were subcultured in YPD broth (YPDB) and incubated 30° C., 200 rpm overnight. • 3. Overnight culture in YPDB was subcultured in YPD broth again and incubated 30° C., 200 rpm for 48 hours. • 4. Cells were collected by centrifugation (4000×g, 10 minutes) at 4° C., washed three times with sterile water, and then resuspended in sterile water a final concentration of 10^9 CFU/mL. • 5. The suspension were stored at 4° C. at least 1 day, then subcultured into YPDB to a final concentration of 10^6 CFU/mL. • 6. After 48 hours incubation, cell suspension was examined under microscope for single cell percentage. • 7. […]
Screening the Anti-Adhesion Effect of Botanicals/Compounds on Porcine Skin • 1. […] After incubation, colonies on plates were counted. Reduction (%) of colony forming unit (CFU) from the average counts on untreated skin was calculated. • 9. […] After incubation, plaques on plates were counted. • d. Reduction (%) of plaque forming unit (PFU) from the average counts on untreated skin was calculated.

[6] = system: C. albicans; assay: High Throughput Anti-adherent Test, polystyrene, one-hour adhesion, C. albicans; format: cell-based, Candida albicans; conditions: agent 5% in water; percentage of microbes that remain attached to treated polystyrene; low = stronger anti-adherent effect; bracketed = adherent effect; * = single measurement, else n = 2
Text: as §1, §2, §3

Oc1ccc(C=Cc2cc(O)cc(O)c2)cc1 [Resveratrol]
Reduction of Adherent Cells (%) from Polystyrene Control (One-Hour Adhesion Time), S. aureus [1]: 8.0 ± 9.9%
Reduction of Adherent Cells (%) from Polystyrene Control (One-Hour Adhesion Time), K. pneumoniae [2]: 7.0 ± 2.8%
Reduction of Adherent Cells (%) from Porcine Skin Control (Two-Hour Adhesion Time), S. aureus ([3]; agent 5% in water, 2 h adhesion, average +/- SD, n = 2, positive = anti-adherent): −4.2 ± 19.1%
Anti-adherence on porcine skin in words, S. aureus ([3]; two-hour adhesion time, Table 2): failed to demonstrate anti-adherence
Anti-adherence on porcine skin in words, K. pneumonia [4]: failed to demonstrate anti-adherence
Reduction of Adherent Cells (%) from Porcine Skin Control (Two-Hour Adhesion Time), C. albicans [5]: 29.8 ± 11.2%
Reduction of Adherent Cells (%) from Polystyrene Control (One-Hour Adhesion Time), C. albicans [6]: 25.5 ± 4.9%
